Laboratory results from article PMC8963254, “Effects of Lysine N-ζ-Methylation in Ultrashort Tetrabasic Lipopeptides (UTBLPs) on the Potentiation of Rifampicin, Novobiocin, and Niclosamide in Gram-Negative Bacteria” (Antibiotics, 2022).
Read-outs that look alike come from different tables or passages of the source. Non-standard residues stand in square brackets, D forms with d. Residues, ends and D or L forms follow the SMILES beside them. *: point of attachment. Lys(Me3) = C[N+](C)(C)CCCC[C@H](N)C(=O)O; Octanoyl = CCCCCCCC(=O)*

Legend:
E. coli ATCC 25922 [1] = assay type: cell-based, Escherichia coli; details: for MICUTBLP: UTBLP alone
How it was run: (§1)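 Values derive from a two-agent checkerboard with an 18 h, 37 °C incubation. FICI cut-offs: ≤0.5 synergy, 0.5–4 additive, >4 antagonism.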

A. baumannii ATCC 17978 [2] = assay type: cell-based, Acinetobacter baumannii; details: ATCC 17978, 18 h
Protocol: (§2) The in vitro antibacterial activity of the UTBLPs was assessed against wild-type and clinically isolated bacterial strains. To obtain the MIC of the compounds, the microbroth dilution susceptibility assay was performed according to the Clinical and Laboratory Standards Institute (CLSI, Wayne, PA, USA) guidelines and as previously described. Briefly, the compounds at varying concentrations were incubated with bacterial inoculum (5 × 10^5 CFU/mL final concentration) at 37 °C for 18 h. Growth in the form of turbidity was confirmed using an EMax Plus microplate reader (Molecular Devices, San Jose, CA, USA) at 590 nm.

MRSA ATCC 33592 = assay type: cell-based, Staphylococcus aureus
Protocol: (§3) The synergy of the UTBLPs with various antibiotics was assessed using checkerboard assay as previously described. Briefly, the combination of antibiotic and OMP at varying concentrations were incubated with bacterial inoculum (5 × 10^5 CFU/mL final concentration) at 37 °C for 18 h. Growth in the form of turbidity was confirmed using an EMax Plus microplate reader (Molecular Devices, Union City, CA, USA) at 590 nm. Fractional inhibitory concentration index (FICI) was used to evaluate the interaction between the antibiotic and the OMP. FICI is the sum of the FIC of the antibiotic and the FIC of the OMP. The FIC value is calculated by dividing the MIC of the agents in combination by the MIC of the agent alone. FICI ≤ 0.5 is synergistic, 0.5 < x ≤ 4 is additive, and >4 is antagonistic.

S. aureus ATCC 29213 = assay type: cell-based, Staphylococcus aureus
Protocol: as §3

E. coli 94474 = assay: microbe, parasite or virus in culture; assay type: cell-based, Escherichia coli; details: 94474, 18 h
How it was run: (§4)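 Turbidity at 590 nm defined growth, from which the MIC was taken. Cultures at a final density of 5 × 10^5 CFU/mL were exposed to a range of compound levels at 37 °C for 18 h in a CLSI-based microdilution format.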

E. coli 94393 = assay: microbe, parasite or virus in culture; assay type: cell-based, Escherichia coli; details: 94393, 18 h
How it was run: as §4

A. baumannii ATCC 17978 [3] = assay type: cell-based, Acinetobacter baumannii; details: for MICUTBLP: UTBLP alone
How it was run: as §1

A. baumannii 92247 = assay type: cell-based, Acinetobacter baumannii; details: for MICUTBLP: UTBLP alone
How it was run: as §1

A. baumannii AB027 [4] = assay type: cell-based, Acinetobacter baumannii; details: for MICUTBLP: UTBLP alone
How it was run: as §1

A. baumannii AB92247 = assay: microbe, parasite or virus in culture; assay type: cell-based, Acinetobacter baumannii; details: AB92247, 18 h
How it was run: as §4

A. baumannii AB027 [5] = assay: microbe, parasite or virus in culture; assay type: cell-based, Acinetobacter baumannii; details: AB027, 18 h
How it was run: as §4

E. cloacae 118564 = assay: microbe, parasite or virus in culture; assay type: cell-based, Enterobacter cloacae; details: 118564, 18 h
How it was run: as §4

MRSE 61589 = assay type: cell-based, Staphylococcus epidermidis
Protocol: as §3

MSSE 81388 = assay type: cell-based, Staphylococcus epidermidis
Protocol: as §3

P. aeruginosa PAO1 = assay type: cell-based, Pseudomonas aeruginosa; details: PAO1, 18 h
Protocol: as §2

E. coli ATCC 25922 [6] = assay type: cell-based, Escherichia coli; details: ATCC 25922, 18 h
Protocol: as §2

[7] = UTBLP in combination with chloramphenicol
[8] = UTBLP in combination with niclosamide
[9] = UTBLP in combination with novobiocin
[10] = UTBLP in combination with rifampicin
[11] = chloramphenicol in combination with the UTBLP
[12] = niclosamide in combination with the UTBLP
[13] = novobiocin in combination with the UTBLP
[14] = rifampicin in combination with the UTBLP
[15] = UTBLP alone, plate with chloramphenicol

CCCCCCCC(=O)NCCCC[C@H](NC(=O)CCCCCCC)C(=O)N[C@@H](CCCC[N+](C)(C)C)C(=O)N[C@@H](CCCC[N+](C)(C)C)C(=O)N[C@@H](CCCC[N+](C)(C)C)C(=O)N[C@@H](CCCC[N+](C)(C)C)C(N)=O [UTBLP 8] (Octanoyl-K(Octanoyl)[Lys(Me3)][Lys(Me3)][Lys(Me3)][Lys(Me3)]-NH2)
Interpretation (E. coli ATCC 25922 [1]; UTBLP + chloramphenicol): Synergy (FICI ≤ 0.5 is synergistic)
Interpretation (E. coli ATCC 25922 [1]; UTBLP + niclosamide): Synergy (FICI ≤ 0.5 is synergistic)
Interpretation (E. coli ATCC 25922 [1]; UTBLP + novobiocin): Synergy (FICI ≤ 0.5 is synergistic)
Interpretation (E. coli ATCC 25922 [1]; UTBLP + rifampicin): Additive (0.5 < x ≤ 4 is additive)
MICUTBLP (E. coli ATCC 25922 [1]; plate with chloramphenicol): > 128 µg/mL
MICUTBLP (E. coli ATCC 25922 [1]; plate with niclosamide): > 128 µg/mL
MICUTBLP (E. coli ATCC 25922 [1]; plate with novobiocin): > 128 µg/mL
MICUTBLP (E. coli ATCC 25922 [1]; plate with rifampicin): > 128 µg/mL
MICUTBLP [MICcombo] (E. coli ATCC 25922 [1]; [7]): 8 µg/mL
MICUTBLP [MICcombo] (E. coli ATCC 25922 [1]; [8]): 8 µg/mL
MICUTBLP [MICcombo] (E. coli ATCC 25922 [1]; [9]): 16 µg/mL
MICUTBLP [MICcombo] (E. coli ATCC 25922 [1]; [10]): 16 µg/mL
MICantibiotic [MICcombo] (E. coli ATCC 25922 [1]; [11]): 2 µg/mL
MICantibiotic [MICcombo] (E. coli ATCC 25922 [1]; [12]): 8 µg/mL
MICantibiotic [MICcombo] (E. coli ATCC 25922 [1]; [13]): 2 µg/mL
MICantibiotic [MICcombo] (E. coli ATCC 25922 [1]; [14]): 1 µg/mL
MIC (A. baumannii ATCC 17978 [2]): >128 mg/L
Interpretation (MRSA ATCC 33592; UTBLP + chloramphenicol): Additive (0.5 < x ≤ 4 is additive)
MICUTBLP (MRSA ATCC 33592; [15]): > 128 µg/mL
MICUTBLP [MICcombo] (MRSA ATCC 33592; [7]): 0.25 µg/mL
MICchloramphenicol [MICcombo] (MRSA ATCC 33592; [11]): 64 µg/mL
MICUTBLP (S. aureus ATCC 29213; [15]): > 128 µg/mL
MICUTBLP [MICcombo] (S. aureus ATCC 29213; [7]): 0.25 µg/mL
MICchloramphenicol [MICcombo] (S. aureus ATCC 29213; [11]): 8 µg/mL
MIC (E. coli 94474): > 128 mg/L
MIC (E. coli 94393): 128 mg/L
Interpretation (A. baumannii ATCC 17978 [3]; UTBLP + chloramphenicol): Additive (0.5 < x ≤ 4 is additive)
Interpretation (A. baumannii ATCC 17978 [3]; UTBLP + niclosamide): Synergy (FICI ≤ 0.5 is synergistic)
Interpretation (A. baumannii ATCC 17978 [3]; UTBLP + novobiocin): Synergy (FICI ≤ 0.5 is synergistic)
Interpretation (A. baumannii ATCC 17978 [3]; UTBLP + rifampicin): Synergy (FICI ≤ 0.5 is synergistic)
MICUTBLP (A. baumannii ATCC 17978 [3]; plate with chloramphenicol): > 128 µg/mL
MICUTBLP (A. baumannii ATCC 17978 [3]; plate with niclosamide): > 128 µg/mL
MICUTBLP (A. baumannii ATCC 17978 [3]; plate with novobiocin): > 128 µg/mL
MICUTBLP (A. baumannii ATCC 17978 [3]; plate with rifampicin): > 128 µg/mL
MICUTBLP [MICcombo] (A. baumannii ATCC 17978 [3]; [7]): 0.25 µg/mL
MICUTBLP [MICcombo] (A. baumannii ATCC 17978 [3]; [8]): 2 µg/mL
MICUTBLP [MICcombo] (A. baumannii ATCC 17978 [3]; [9]): 16 µg/mL
MICUTBLP [MICcombo] (A. baumannii ATCC 17978 [3]; [10]): 16 µg/mL
MICantibiotic [MICcombo] (A. baumannii ATCC 17978 [3]; [11]): 64 µg/mL
MICantibiotic [MICcombo] (A. baumannii ATCC 17978 [3]; [12]): 16 µg/mL
MICantibiotic [MICcombo] (A. baumannii ATCC 17978 [3]; [13]): 4 µg/mL
MICantibiotic [MICcombo] (A. baumannii ATCC 17978 [3]; [14]): 0.25 µg/mL
Interpretation (A. baumannii 92247; UTBLP + novobiocin): Synergy (FICI ≤ 0.5 is synergistic)
Interpretation (A. baumannii 92247; UTBLP + rifampicin): Synergy (FICI ≤ 0.5 is synergistic)
MICUTBLP (A. baumannii 92247; plate with novobiocin): 128 µg/mL
MICUTBLP (A. baumannii 92247; plate with rifampicin): 128 µg/mL
MICUTBLP [MICcombo] (A. baumannii 92247; [9]): 16 µg/mL
MICUTBLP [MICcombo] (A. baumannii 92247; [10]): 16 µg/mL
MICantibiotic [MICcombo] (A. baumannii 92247; [13]): 0.125 µg/mL
MICantibiotic [MICcombo] (A. baumannii 92247; [14]): 0.5 µg/mL
Interpretation (A. baumannii AB027 [4]; UTBLP + novobiocin): Synergy (FICI ≤ 0.5 is synergistic)
Interpretation (A. baumannii AB027 [4]; UTBLP + rifampicin): Synergy (FICI ≤ 0.5 is synergistic)
MICUTBLP (A. baumannii AB027 [4]; plate with novobiocin): > 128 µg/mL
MICUTBLP (A. baumannii AB027 [4]; plate with rifampicin): > 128 µg/mL
MICUTBLP [MICcombo] (A. baumannii AB027 [4]; [9]): 16 µg/mL
MICUTBLP [MICcombo] (A. baumannii AB027 [4]; [10]): 16 µg/mL
MICantibiotic [MICcombo] (A. baumannii AB027 [4]; [13]): 2 µg/mL
MICantibiotic [MICcombo] (A. baumannii AB027 [4]; [14]): 0.25 µg/mL
MIC (A. baumannii AB92247): 128 mg/L
MIC (A. baumannii AB027 [5]): > 128 mg/L
MIC (E. cloacae 118564): > 128 mg/L
Interpretation (MRSE 61589; UTBLP + chloramphenicol): Additive (0.5 < x ≤ 4 is additive)
MICUTBLP (MRSE 61589; [15]): 128 µg/mL
MICUTBLP [MICcombo] (MRSE 61589; [7]): 0.25 µg/mL
MICchloramphenicol [MICcombo] (MRSE 61589; [11]): 8 µg/mL
Interpretation (MSSE 81388; UTBLP + chloramphenicol): Additive (0.5 < x ≤ 4 is additive)
MICUTBLP (MSSE 81388; [15]): 128 µg/mL
MICUTBLP [MICcombo] (MSSE 81388; [7]): 0.25 µg/mL
MICchloramphenicol [MICcombo] (MSSE 81388; [11]): 4 µg/mL
MIC (P. aeruginosa PAO1): >128 mg/L
MIC (E. coli ATCC 25922 [6]): >128 mg/L
